Measured values: BigSolDB 2.1

Cn1cc[nH]c1=S
solubility (mole fraction)
Settings | 278.15 K | 283.15 K | 288.15 K | 293.15 K | 298.15 K | 303.15 K | 308.15 K | 313.15 K | 318.15 K | 323.15 K
in 1,4-dioxane | 0.0435 | 0.0517 | 0.0616 | 0.0731 | 0.0874 | 0.102 | 0.119 | 0.141 | 0.164 | 0.187
in THF | 0.0475 | 0.0542 | 0.0634 | 0.0733 | 0.0841 | 0.0972 | 0.112 | 0.13 | 0.148 | 0.169
in acetone | 0.0425 | 0.0517 | 0.0623 | 0.0749 | 0.0889 | 0.107 | 0.124 | 0.147 | 0.167 | 0.193
in acetonitrile | 0.016 | 0.0216 | 0.0267 | 0.0338 | 0.0416 | 0.0531 | 0.0668 | 0.0818 | 0.101 | 0.121
in ethanol | 0.0275 | 0.0335 | 0.0417 | 0.0519 | 0.0645 | 0.0795 | 0.0968 | 0.117 | 0.139 | 0.167
in ethyl acetate | 0.0159 | 0.018 | 0.0198 | 0.022 | 0.0246 | 0.0273 | 0.0306 | 0.0339 | 0.038 | 0.0428
in isobutanol | 0.019 | 0.0233 | 0.0289 | 0.0365 | 0.0439 | 0.0542 | 0.0656 | 0.0809 | 0.0966 | 0.117
in isopropanol | 0.0168 | 0.0225 | 0.029 | 0.0381 | 0.0478 | 0.0621 | 0.0788 | 0.0985 | 0.123 | 0.152
in methanol | 0.06 | 0.0711 | 0.084 | 0.0996 | 0.125 | 0.148 | 0.177 | 0.21 | 0.244 | 0.283
in methyl acetate | 0.0288 | 0.0337 | 0.0391 | 0.0452 | 0.0521 | 0.0593 | 0.07 | 0.0817 | 0.0936 | 0.107
in n-butanol | 0.0194 | 0.026 | 0.0328 | 0.0414 | 0.0528 | 0.0665 | 0.0823 | 0.102 | 0.124 | 0.153
in n-propanol | 0.0261 | 0.032 | 0.0385 | 0.0468 | 0.0558 | 0.0663 | 0.0786 | 0.0931 | 0.111 | 0.13
